Experimental data published in patent US20250304620A1, “ANTIMICROBIAL PEPTIDE AND APPLICATION THEREOF” (priority 2023, published 2025).
Values after ≈ are worked out from the molar mass of the structure shown. Marks after values point to notes of the source that are not given here. Non-standard residues stand in square brackets, D forms with d. Residues, ends and D or L forms follow the SMILES beside them.

How the values were obtained:
[1] = system: Escherichia coli ATCC 25922; assay: Oral formulations on mice with systemic bacterial infection; type: in vivo, ICR mice; conditions: three times a day for 7 days; for Number of mice that died on each day after infection: day 4 / Number of mice that died on each day after infection: day 5 / Number of mice that died on each day after infection: day 6 / Number of mice that died on each day after infection: day 7 / Number of mice that died on each day after infection: day 8 / Average survival times (Days): n = 10; for Average survival times (Days): observed for 14 d
Protocol: Both female and male ICR mice were used in the test, half of the female and male mice were taken and randomly assigned into groups, with 10 mice in each group, and kept in separate cages. The mice were divided into a blank control group, a negative control group, a positive control Levofloxacin group, and AMPs LV-1 to LV-30 groups. An Escherichia coli ATCC 25922 bacterial suspension was prepared, a concentration of the suspension was adjusted 1×10^7 CFU/mL for subsequent use. Except for the blank control group, all other mice were injected with the Escherichia coli suspension (0.2 mL, 1×10^7 CFU/mL), into abdominal cavity of the mice, to establish a model. After the model was successfully established, the mice were given drug immediately according to their body weights. Except for the blank control group and the negative control group, the mice in all other groups were gavaged with different compounds, three times a day for 7 consecutive days. The mice were then observed for 14 d. The death of mice in each group was observed, and survival time of the mice was recorded. Results of the effect of the oral formulations of AMPs LV-1 to LV-30 on the survival time of mice infected with Escherichia coli are shown in Table 11.

[2] = system: Staphylococcus aureus (NRS 384); conditions: NRS 384, 3 h
Protocol: Trypsin (250 U/mg, pH=8.0) and AMPs (LV-1 to LV-30) were mixed in a ratio of 1:10 (w/w) and added to a reaction buffer (0.2 M sodium phosphate, 1 mM CaCl2), pH 7.5), and then incubated at 37° C. for 3 h.

[3] = system: Serratia marcescens ATCC 29021; type: cell-based
Text: (§1) According to the Standards of Clinical and Laboratory Standards Institute (CLSI) of the USA for antimicrobial drug susceptibility test operation standards, the micronutrient serial twofold dilution method was used further determine MICs of 30 AMPs (S/N: LV-1 to LV-30) 10 clinically common sensitive strains and 6 fungi in clinical practice. The experiment was repeated 5 times in parallel.

[4] = system: Klebsiella pneumoniae ATCC 700603; type: cell-based
Text: as §1

Candida krusei ATCC 6258 = type: cell-based
Text: as §1

[5] = system: Candida tropicalis ATCC 750; type: cell-based
Text: as §1

[6] = system: Escherichia coli ATCC 25922; type: cell-based
Text: as §1

[7] = system: Corynebacterium ATCC 7715; type: cell-based
Text: as §1

Enterococcus ATCC 29212 = type: cell-based
Text: as §1

[8] = system: Candida albicans ATCC MYA-2876; type: cell-based
Text: as §1

[9] = system: Trichophyton ATCC MYA-4438; type: cell-based
Text: as §1

[10] = system: Pseudomonas aeruginosa ATCC 27853; type: cell-based
Text: as §1

[11] = system: carbapenem-resistant Pseudomonas aeruginosa (CRPA); type: cell-based; conditions: carbapenem-resistant (CRPA)
Text: (§2) According to the Standards of Clinical and Laboratory Standards Institute (CLSI) of the USA for antimicrobial drug susceptibility test operation standards, the micronutrient serial twofold dilution method was used further determine MICs of the antimicrobial peptides LV-1 to LV-30 against 5 clinically common drug-resistant bacterial strains. The experiment was repeated 5 times in parallel. […] The tested drug-resistant strains included Methicillin-resistant Staphylococcus aureus (MRSA), carbapenem-resistant Escherichia coli (CREC), vancomycin-resistant Enterococcus (VRE), carbapenem-resistant Pseudomonas aeruginosa (CRPA), and carbapenem-resistant Klebsiella pneumoniae (CRKP).

[12] = system: carbapenem-resistant Klebsiella pneumoniae (CRKP); type: cell-based; conditions: carbapenem-resistant (CRKP)
Text: as §2

[13] = system: vancomycin-resistant Enterococcus (VRE); type: cell-based
Text: as §2

[14] = system: carbapenem-resistant Escherichia coli (CREC); type: cell-based; conditions: carbapenem-resistant (CREC)
Text: as §2

[15] = system: Methicillin-resistant Staphylococcus aureus (MRSA); type: cell-based; conditions: Methicillin-resistant
Text: as §2

[16] = system: Pseudomonas aeruginosa ATCC 27853; assay: Injectable formulations on mice infected with peritonitis; type: in vivo, ICR mice; conditions: twice a day for 3 days; for Number of mice that died on each day after infection: day 1 / Number of mice that died on each day after infection: day 2 / Number of mice that died on each day after infection: day 3 / Number of mice that died on each day after infection: day 4 / Number of mice that died on each day after infection: day 5 / Average survival times (Days): n = 10; for Average survival times (Days): observed for 14 d
Protocol: Both female and male ICR mice were used in the test, half of the female and male mice were taken and randomly assigned into groups, with 10 mice in each group, and kept in separate cages. The mice were divided into a blank control group, a negative control group, a positive control Levofloxacin group, and AMPs LV-1 to LV-30 groups. A bacterial suspension of Pseudomonas aeruginosa ATCC 27853 was prepared, a concentration of the suspension was adjusted 1×10^9 CFU/mL for subsequent use. Except for the blank control group, all other mice were injected with the bacterial suspension (0.2 mL, 1×10^9 CFU/mL), into abdominal cavity of the mice, to establish a model. After the model was successfully established, the mice were given drug immediately according to their body weights. Except for the blank control group and the negative control group, the mice in all other groups were administered the corresponding injectable formulations via tail vein, twice a day for 3 consecutive days. The mice were then observed for 14 d. The death of mice in each group was observed, and survival time of the mice was recorded. Results of the effect of the injectable formulations of AMPs LV-1 to LV-30 on the survival time of mice infected with Pseudomonas aeruginosa are shown in Table 10.

[17] = system: Shigella flexneri ATCC 12022; assay: MIC against clinically common bacterial strain; type: cell-based
Text: as §1

CC(=O)N[C@H](CCCNC(=N)N)C(=O)N[C@H](CCCCN)C(=O)N[C@H](CC(C)C)C(=O)N[C@H](CC(C)C)C(=O)N[C@H](Cc1ccccc1)C(=O)N[C@H](CCCNC(=N)N)C(=O)N[C@H](CC(C)C)C(=O)N[C@H](CCCCN)C(=O)N[C@H](Cc1ccccc1)C(=O)N[C@H](CCCNC(=N)N)C(=O)N[C@H](CCCCN)C(N)=O [LV-2] (Ac-[dR][dK][dL][dL][dF][dR][dL][dK][dF][dR][dK]-NH2)
Number of mice that died on each day after infection: day 4 ([1]; 0.2 mg/kg gavage): 1 Mouse | Number of mice that died on each day after infection: day 5 ([1]; 0.2 mg/kg gavage): 2 Mouse | Number of mice that died on each day after infection: day 6 ([1]; 0.2 mg/kg gavage): 1 Mouse | Number of mice that died on each day after infection: day 7 ([1]; 0.2 mg/kg gavage): 1 Mouse | Number of mice that died on each day after infection: day 8 ([1]; 0.2 mg/kg gavage): 1 Mouse | Average survival times (Days) ([1]; 0.2 mg/kg gavage): 9.1** Days | Number of mice that died on each day after infection: day 4 ([1]; 1 mg/kg gavage): 0 Mouse | Number of mice that died on each day after infection: day 5 ([1]; 1 mg/kg gavage): 2 Mouse | Number of mice that died on each day after infection: day 6 ([1]; 1 mg/kg gavage): 1 Mouse | Number of mice that died on each day after infection: day 7 ([1]; 1 mg/kg gavage): 0 Mouse | Number of mice that died on each day after infection: day 8 ([1]; 1 mg/kg gavage): 0 Mouse | Average survival times (Days) ([1]; 1 mg/kg gavage): 11.4**** Days | Number of mice that died on each day after infection: day 4 ([1]; 5 mg/kg gavage): 0 Mouse | Number of mice that died on each day after infection: day 5 ([1]; 5 mg/kg gavage): 3 Mouse | Number of mice that died on each day after infection: day 6 ([1]; 5 mg/kg gavage): 1 Mouse | Number of mice that died on each day after infection: day 7 ([1]; 5 mg/kg gavage): 0 Mouse | Number of mice that died on each day after infection: day 8 ([1]; 5 mg/kg gavage): 0 Mouse | Average survival times (Days) ([1]; 5 mg/kg gavage): 10.5*** Days | survival time of mice infected with Escherichia coli ([1]; gavage, observed 14 d): superior to those of the Levofloxacin group | Trypsin MIC [2]: 1 µg/mL | MIC Serratia marcescens ATCC 29021 [3]: 4 µg/mL (≈ 2.59 µM) | MIC Klebsiella pneumoniae ATCC 700603 [4]: 4 µg/mL (≈ 2.59 µM) | MIC Candida krusei ATCC 6258 (Candida krusei ATCC 6258): 16 µg/mL (≈ 10.3 µM) | MIC Candida tropicalis ATCC 750 [5]: 16 µg/mL (≈ 10.3 µM) | MIC Escherichia coli ATCC 25922 [6]: 1 µg/mL (≈ 0.647 µM) | MIC Corynebacterium ATCC 7715 [7]: 4 µg/mL (≈ 2.59 µM) | MIC Enterococcus ATCC 29212 (Enterococcus ATCC 29212): 4 µg/mL (≈ 2.59 µM) | MIC Candida albicans ATCC MYA-2876 [8]: 16 µg/mL (≈ 10.3 µM) | MIC Trichophyton ATCC MYA-4438 [9]: 8 µg/mL (≈ 5.17 µM) | MIC Pseudomonas aeruginosa ATCC 27853 [10]: 1 µg/mL (≈ 0.647 µM) | MIC CRPA [11]: 8 µg/mL (≈ 5.17 µM) | MIC CRKP [12]: 2 µg/mL (≈ 1.29 µM) | MIC VRE [13]: 2 µg/mL (≈ 1.29 µM) | MIC CREC [14]: 4 µg/mL (≈ 2.59 µM) | MIC MRSA [15]: 2 µg/mL (≈ 1.29 µM) | Number of mice that died on each day after infection: day 1 ([16]; 0.2 mg/kg via tail vein): 3 Mouse | Number of mice that died on each day after infection: day 2 ([16]; 0.2 mg/kg via tail vein): 1 Mouse | Number of mice that died on each day after infection: day 3 ([16]; 0.2 mg/kg via tail vein): 1 Mouse | Number of mice that died on each day after infection: day 4 ([16]; 0.2 mg/kg via tail vein): 0 Mouse | Number of mice that died on each day after infection: day 5 ([16]; 0.2 mg/kg via tail vein): 0 Mouse | Average survival times (Days) ([16]; 0.2 mg/kg via tail vein): 7.8** Days | Number of mice that died on each day after infection: day 1 ([16]; 1 mg/kg via tail vein): 0 Mouse | Number of mice that died on each day after infection: day 2 ([16]; 1 mg/kg via tail vein): 0 Mouse | Number of mice that died on each day after infection: day 3 ([16]; 1 mg/kg via tail vein): 1 Mouse | Number of mice that died on each day after infection: day 4 ([16]; 1 mg/kg via tail vein): 0 Mouse | Number of mice that died on each day after infection: day 5 ([16]; 1 mg/kg via tail vein): 1 Mouse | Average survival times (Days) ([16]; 1 mg/kg via tail vein): 12.0**** Days | Number of mice that died on each day after infection: day 1 ([16]; 5 mg/kg via tail vein): 1 Mouse | Number of mice that died on each day after infection: day 2 ([16]; 5 mg/kg via tail vein): 0 Mouse | Number of mice that died on each day after infection: day 3 ([16]; 5 mg/kg via tail vein): 1 Mouse | Number of mice that died on each day after infection: day 4 ([16]; 5 mg/kg via tail vein): 0 Mouse | Number of mice that died on each day after infection: day 5 ([16]; 5 mg/kg via tail vein): 0 Mouse | Average survival times (Days) ([16]; 5 mg/kg via tail vein): 11.6**** Days | survival time of mice infected with Pseudomonas aeruginosa ([16]; tail vein, observed 14 d): superior to those of the Levofloxacin group | MIC Shigella flexneri ATCC 12022 [17]: 2 µg/mL (≈ 1.29 µM)
